Earlier results on one substance are cited in patent US7615533B2, “TPO peptide compounds for treatment of anemia” (Janssen Pharmaceutica N.V., priority 2004, dated 2009).

The subject of this data set is rhesus monkeys exposed to 5 Gy total body irradiation. To be noted: 5 Gy total body irradiation (300-kV x-rays); cited from earlier work.

Consider “human recombinant TPO: human recombinant thrombopoietin, glycoprotein; comparator in the reporter assay and cited in the background”, for which the “reticulocyte regeneration initiated earlier than in placebo-treated animals” value was 10 days.
